We go through eleven molecules from PMC10484737 (Nucleic Acids Research, 2023).

For orientation: Kd means the constant that tells how readily two partners part at equilibrium. The term stoichiometry N denotes a count of units in the complex or per binding partner. One may read the Km as the concentration of substrate that gives half-maximal velocity. As usually defined, the Vmax is the top rate of the reaction or transport when substrate is in excess.

In data set [1] the target is T1, TsaN^749−1008 (TcdA domain of TsaN) (Pandoravirus salinus, UniProt A0A291ATS8).
T1 sequence (A0A291ATS8 749-1008): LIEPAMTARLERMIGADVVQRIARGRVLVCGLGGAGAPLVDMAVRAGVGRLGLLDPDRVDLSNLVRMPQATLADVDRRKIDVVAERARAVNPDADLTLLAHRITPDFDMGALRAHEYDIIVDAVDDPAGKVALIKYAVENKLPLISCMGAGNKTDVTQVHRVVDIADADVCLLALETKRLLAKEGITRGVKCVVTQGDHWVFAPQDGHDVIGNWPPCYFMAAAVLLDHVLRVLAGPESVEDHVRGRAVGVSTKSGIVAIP
Put plainly: ITC, ligand binding to the TcdA domain. On the set-up: species or system P. salinus.

Data set [2] addresses T2, TsaN^1−392 (TsaD domain of TsaN) (Pandoravirus salinus, UniProt A0A291ATS8).
T2 sequence (A0A291ATS8 1-392): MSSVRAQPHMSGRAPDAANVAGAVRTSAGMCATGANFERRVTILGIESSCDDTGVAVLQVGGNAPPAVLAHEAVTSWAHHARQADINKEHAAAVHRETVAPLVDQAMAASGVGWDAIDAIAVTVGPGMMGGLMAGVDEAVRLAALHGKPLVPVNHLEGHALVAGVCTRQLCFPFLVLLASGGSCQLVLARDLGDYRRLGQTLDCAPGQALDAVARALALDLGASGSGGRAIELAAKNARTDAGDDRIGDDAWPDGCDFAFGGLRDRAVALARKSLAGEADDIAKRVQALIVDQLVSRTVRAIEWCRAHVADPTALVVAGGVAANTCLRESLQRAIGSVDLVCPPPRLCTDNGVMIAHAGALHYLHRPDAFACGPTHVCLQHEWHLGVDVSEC
The data set is described as follows: ITC, nucleotide binding to the TsaD domain. On the set-up: species or system P. salinus. Particulars: for ΔG / ΔH: 30 μM TsaN^1−392 titrated with 360 μM ligand. For orientation: ITC needs no label: the signal is the heat of the interaction.

In a further data set the test system is TsaN^749−1008. The data set is described as follows: Enzymatic assay of ct^6A, LC–MS. It counts as biochemical, P. salinus. Particulars: for ct^6A formation from synthetic t^6A in the presence of the nucleotide (ct^6A/t^6A): TsaN^749−1008 and synthetic t^6A plus ATP, AMPCPP, AMP or AMP + PPi.
A further data set deals with TsaN^H155A/H159A. Put plainly: NADH-coupled ATPase assay. The settings on record: 5 μM TsaN^H155A/H159A. It counts as biochemical, P. salinus.
The target of the next data set is TsaN^(1−392)H155A/H159A. Put plainly: ITC, ATP binding to the TsaD domain variant. On the set-up: species or system P. salinus. Particulars: 30 μM TsaN^(1−392)H155A/H159A titrated with 360 μM ligand.
The target of the next data set is T3, TsaN (Pandoravirus salinus, UniProt A0A291ATS8).
T3 sequence (A0A291ATS8 1-1008): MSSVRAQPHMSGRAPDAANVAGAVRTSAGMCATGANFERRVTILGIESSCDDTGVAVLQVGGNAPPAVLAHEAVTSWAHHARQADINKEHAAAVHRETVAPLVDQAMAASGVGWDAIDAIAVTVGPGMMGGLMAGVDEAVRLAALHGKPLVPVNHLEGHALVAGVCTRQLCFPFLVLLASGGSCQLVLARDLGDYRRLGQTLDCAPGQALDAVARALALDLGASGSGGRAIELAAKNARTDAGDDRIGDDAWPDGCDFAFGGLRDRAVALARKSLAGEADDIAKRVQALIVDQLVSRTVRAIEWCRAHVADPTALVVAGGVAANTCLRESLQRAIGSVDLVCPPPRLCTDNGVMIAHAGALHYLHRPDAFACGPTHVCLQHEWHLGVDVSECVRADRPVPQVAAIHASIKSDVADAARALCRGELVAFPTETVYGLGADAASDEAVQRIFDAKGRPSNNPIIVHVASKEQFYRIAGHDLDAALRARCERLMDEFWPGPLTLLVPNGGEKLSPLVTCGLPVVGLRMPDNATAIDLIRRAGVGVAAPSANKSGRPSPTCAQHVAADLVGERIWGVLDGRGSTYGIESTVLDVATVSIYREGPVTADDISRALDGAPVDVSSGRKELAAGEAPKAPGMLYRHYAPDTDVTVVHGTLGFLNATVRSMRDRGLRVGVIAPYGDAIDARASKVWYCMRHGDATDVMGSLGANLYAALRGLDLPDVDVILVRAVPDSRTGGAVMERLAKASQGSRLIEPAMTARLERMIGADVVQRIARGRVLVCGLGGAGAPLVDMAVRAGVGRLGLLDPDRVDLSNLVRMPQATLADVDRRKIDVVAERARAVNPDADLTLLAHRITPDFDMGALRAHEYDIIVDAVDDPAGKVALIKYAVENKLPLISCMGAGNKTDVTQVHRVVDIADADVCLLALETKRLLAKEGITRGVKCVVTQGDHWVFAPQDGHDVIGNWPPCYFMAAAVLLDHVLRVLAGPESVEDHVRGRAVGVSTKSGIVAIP
The data set is described as follows: Effect of divalent metal ions on biosynthesis of t^6ADP and t^6ATP. It counts as biochemical, P. salinus. The settings on record: pre-bound metals removed by dialysis with EDTA.

Data set [3] addresses Pandoravirus salinus TsaN (TsaD-TsaC-SUA5-TcdA modular protein), full length (Pandoravirus salinus). Put plainly: SEC-MALS.
Data set [4] has the same target. Put plainly: SEC. (In gel filtration, larger molecules generally elute earlier.)
Data set [5] addresses TsaN^749-1008 (TcdA domain of P. salinus TsaN) (Pandoravirus salinus). The data set is described as follows: SEC-MALS.
Substrate in data set [6]: Nc1ncnc2c1ncn2[C@@H]1O[C@H](COP(=O)(O)OP(=O)(O)OP(=O)(O)O)[C@@H](O)[C@H]1O
The data set is described as follows: NADH-coupled ATPase assay. Type of data set: biochemical, P. salinus. Particulars: 25°C, pH 7.5.

[7] abbreviates: 30 μM TsaN^749−1008 titrated with 360 μM ligand.
Where [8] appears, read: 30 μM TsaN^749−1008, 360 μM ligand, in the presence of 100 μM synthetic t^6A.
Where [9] appears, read: other: 5 μM TsaN^1−392, varying ATP.

“Also recorded” adds a separate entry of the source.

Consider `Nc1ncnc2c1ncn2[C@@H]1O[C@H](CO)[C@@H](O)[C@H]1O` [A, adenosine], for which, in [1] (setting [7]), the “K D” value is reported as “not able to determine the binding; also recorded: No binding”, the “N (sites)” value was “No binding”, the ΔG entry is reported as “No binding” and the ΔH result is “No binding”. Besides, in data set [2], the ΔG entry was “No binding” and the ΔH entry is “No binding”.

Take `Nc1ncnc2c1ncn2[C@@H]1O[C@H](COP(=O)(O)OP(=O)(O)O)[C@@H](O)[C@H]1O` [ADP]: in data set [1] (setting [7]), the “K D” value was “not able to determine the binding; also recorded: No binding”, the “N (sites)” value is given as “No binding”, the ΔG entry is recorded as “No binding” and the ΔH entry is on record as “No binding”. Further, the “ITC binding to AMP-bound TsaN^1-392” value in [2] (30 μM AMP-bound TsaN^1-392 titrated with 360 μM ADP, data not shown) was “no binding curves”. Besides, in data set [2], the ΔG is -7.05 kcal/mol and the ΔH is -2.74 ± 0.62 kcal/mol.

Take `Nc1ncnc2c1ncn2[C@@H]1O[C@H](COP(=O)(O)CP(=O)(O)OP(=O)(O)O)[C@@H](O)[C@H]1O` [AMPCPP]: in data set [1] (setting [8]), the “K D” value is recorded as “not observed a binding signal; also recorded: No binding”, the “N (sites)” value is listed as “No binding”, the ΔG entry is reported as “No binding” and the ΔH result was “No binding”. Moreover, in the data set on TsaN^749−1008, the “ct^6A formation from synthetic t^6A in the presence of the nucleotide (ct^6A/t^6A)” value (from here on “ct^6A formation from synthetic t^6A”) is reported as “not observed the formation of ct^6A”.

With `Nc1ncnc2c1ncn2[C@@H]1O[C@H](COP(=O)(O)O)[C@@H](O)[C@H]1O` [AMP], in data set [1] (setting [7]), the “K D” value is on record as “not able to determine the binding; also recorded: No binding”, the “N (sites)” value was “No binding”, the ΔG result is reported as “No binding” and the ΔH entry is reported as “No binding”. In data set [2], this molecule returned a ΔG of -6.49 kcal/mol and a ΔH of -4.74 ± 1.46 kcal/mol. For the same molecule, in the data set on TsaN^749−1008, the “ct^6A formation from synthetic t^6A” value is on record as “not observed the formation of ct^6A”.

With `Nc1ncnc2c1ncn2[C@@H]1O[C@H](COP(=O)(O)OP(=O)(O)OP(=O)(O)O)[C@@H](O)[C@H]1O` [ATP], the “production of ADP in the ATPase assay” value with TsaN^H155A/H159A is on record as “not detected”. In addition, in data set [1] (setting [7]), the “K D” value is recorded as “not able to determine the binding; also recorded: No binding”, the “N (sites)” value is “No binding”, the ΔG entry is reported as “No binding” and the ΔH result was “No binding”. For the same molecule, at TsaN^(1−392)H155A/H159A, the “K D” value is “does not bind; also recorded: No binding”. In the data set on TsaN^749−1008, the “ct^6A formation from synthetic t^6A” value was “efficient conversion of t^6A to ct^6A”. Further, in the data set on TsaN^749−1008 (in the absence of synthetic t^6A, data not shown), the ATP hydrolysis entry is listed as “not hydrolyzed”.

In [2], `Nc1ncnc2c1ncn2[C@@H]1O[C@H](CO[P@](=O)(O)O[P@](=O)(O)O[P@@](=O)(O)S)[C@@H](O)[C@H]1O` [ATPγS] yielded a Kd of 10.9 ± 8.91 µM, a ΔG of -6.77 kcal/mol and a ΔH of -6.02 ± 2.38 kcal/mol.

Take `[Cl][Mn][Cl]` [MnCl2]: at TsaN, the “effect of divalent metal ion on catalytic activity of TsaN (t^6A/A)” value is given as “stimulated the catalytic activity”.

As to “Pandoravirus salinus TsaN (TsaD-TsaC-SUA5-TcdA modular protein), full length (enzyme)”, the stoichiometry N in data set [3] and in data set [4] was 2 throughout.

Turning to “TsaN^749-1008 (TcdA domain of P. salinus TsaN) (domain or fragment)”, in data set [5], the stoichiometry N was determined as 2.

B1: TsaN^1−392 (Pandoravirus salinus) (protein)
chain: T2 sequence (A0A291ATS8 1-392)
As to B1, in data set [6] (setting [9]), the Km is 40 µM and the Vmax was found to be 0.015 µM/s.

B2: TsaN (Pandoravirus salinus) (protein)
chain: T3 sequence (A0A291ATS8 1-1008)
As for B2, in [6] (other: 5 μM TsaN, varying ATP), the Michaelis constant (Km) worked out at 40 µM and the Vmax stood at 0.015 µM/s.
